Measured values: the NIST ThermoML archive (doi:10.1016/j.fluid.2010.07.005)
± gives the expanded uncertainty stated by the source.

Assays:
[1] = molar heat capacity at constant pressure; details: 101.33 kPa, Liquid, Vacuum adiabatic calorimetry
[2] = 101.33 kPa, Liquid; for viscosity: Capillary tube (Ostwald / Ubbelohde) method; for mass density: Speicific gravity balance
[3] = excess molar enthalpy (molar enthalpy of mixing); xn = mol fraction of the nth substance listed; details: 298.15 K; 101.33 kPa; Liquid; Flow calorimetry; x2 = 0

With `COP(=O)([O-])OC.Cn1cc[n+](C)c1` [1,3-dimethylimidazolium dimethylphosphate] the “molar heat capacity at constant pressure” value ([1]; 298.15 K) was 282.83 ± 13 J/K/mol, the “molar heat capacity at constant pressure” value ([1]; 303.15 K) was 296.61 ± 13 J/K/mol and the “molar heat capacity at constant pressure” value ([1]; 313.15 K) was 310.83 ± 13 J/K/mol. For the same molecule, the “molar heat capacity at constant pressure” value ([1]; 323.15 K) was 321.05 ± 13 J/K/mol, the viscosity ([2]; 298.15 K) was 271.86 ± 8 mPa·s and the mass density ([2]; 298.15 K) was 1258.7 ± 1.2 kg/m3. For the same molecule, the viscosity ([2]; 303.15 K) was 188.3 ± 4.5 mPa·s, the mass density ([2]; 303.15 K) was 1255.9 ± 1.2 kg/m3 and the viscosity ([2]; 308.15 K) was 139.49 ± 2.6 mPa·s. It also gave a mass density ([2]; 308.15 K) of 1253 ± 1.2 kg/m3, a viscosity ([2]; 313.15 K) of 110.25 ± 1.6 mPa·s and a mass density ([2]; 313.15 K) of 1249.1 ± 1.2 kg/m3. The viscosity ([2]; 318.15 K) was 84.44 ± 0.88 mPa·s, the mass density ([2]; 318.15 K) was 1245.2 ± 1.2 kg/m3 and the viscosity ([2]; 323.15 K) was 69.99 ± 0.59 mPa·s. It also gave a mass density ([2]; 323.15 K) of 1241.5 ± 1.2 kg/m3.

With `CCO` [ethanol] + COP(=O)([O-])OC.Cn1cc[n+](C)c1 the excess molar enthalpy [3] was 0 ± 0.036 kJ/mol.

In the case of `CO` [methanol] + COP(=O)([O-])OC.Cn1cc[n+](C)c1, the excess molar enthalpy [3] is reported as 0 ± 0.022 kJ/mol.

For `O` [water] + COP(=O)([O-])OC.Cn1cc[n+](C)c1, the excess molar enthalpy [3] was 0 ± 0.23 kJ/mol.
